In one assay the test system is Echinochloa crus-galli (L.) Beauv. var. crusgalli. Description: Herbicidal effect by upland field soil treatment. Further details: scale not given here. To be noted: active ingredient 1000 g/ha, examined at 21st day from treatment. The class given is in vivo. From the text: (§1) An upland field soil was filled in a plastic pot of 80 cm^2. Seeds of Echinochloa crus-galli (L.) Beauv. var. crusgalli and Setaria viridis (L.) Beauv. were sowed, followed by covering with the same soil. […] Then, breeding was made in a greenhouse, and the herbicidal effect of each wettable powder was examined at the 21st day from the treatment in accordance with the standard shown in Table 21.
On to `CCOCCn1nc(C(F)(F)F)c(CS(=O)(=O)C2=NOC(C)(C)C2)c1Cl` [3-0126], for which the “herbicidal effect (index per standard of Table 21), Echinochloa curs-galli (L.) Beauv. Var. crus-galli” value amounted to 5.
As to `CC1(C)CC(S(=O)(=O)Cc2cccc3ccsc23)=NO1` [10-0015], the “herbicidal effect (index per standard of Table 21), Echinochloa curs-galli (L.) Beauv. Var. crus-galli” value stood at 5.
Regarding `Cc1cc2cccc(CS(=O)(=O)C3=NOC(C)(C)C3)c2o1` [10-0013], the “herbicidal effect (index per standard of Table 21), Echinochloa curs-galli (L.) Beauv. Var. crus-galli” value turned out to be 5.
The same measure, in the same setting: in the case of `CC1(C)CC(S(=O)(=O)Cc2cc(Cl)sc2Cl)=NO1` [2-0005] it was 5.
Same read-out and setting: with `CC1(C)CC(S(=O)(=O)Cc2sc3ccccc3c2Cl)=NO1` [10-0003] the figure was 5; with `Cc1nn(-c2ccccc2)c(CS(=O)(=O)C2=NOC(C)(C)C2)c1OC(F)F` [5-0006], 5.
Still for that read-out and setting: in the case of `Cn1ncc2c(CS(=O)(=O)C3=NOC(C)(C)C3)cccc21` [10-0005] it was 5.
As for `CC1(C)CC(S(=O)(=O)Cc2ccc(Cl)s2)=NO1` [1-0005], the “herbicidal effect (index per standard of Table 21), Echinochloa curs-galli (L.) Beauv. Var. crus-galli” value was determined as 5.
Regarding `Cc1onc(-c2ccccc2)c1CS(=O)(=O)C1=NOC(C)(C)C1` [4-0007], the “herbicidal effect (index per standard of Table 21), Echinochloa curs-galli (L.) Beauv. Var. crus-galli” value is on record as 5.
On the same count and under the same terms, with `CC1(C)CC(S(=O)(=O)Cc2nc3ccccc3s2)=NO1` [10-0006] the figure was 5; with `Cn1nc(C(F)(F)F)c(CS(=O)(=O)C2=NOC(C)(C)C2)c1OC(C)(C)C` [3-0047], 5; with `Cn1nc(Cl)c(CS(=O)(=O)C2=NOC(C)(C)C2)c1C(F)(F)F` [3-0040], 5.

The next assay relates to Setaria viridis (L.) Beauv. Put plainly: Herbicidal effect by upland field soil treatment. The class given is in vivo. Also noted: scale not given here. To be noted: active ingredient 1000 g/ha, examined at 21st day from treatment.
Source text: as §1
Take `CCOCCn1nc(C(F)(F)F)c(CS(=O)(=O)C2=NOC(C)(C)C2)c1Cl` [3-0126]: the “herbicidal effect (index per standard of Table 21), Setaria viridis (L.) Beauv.” value came out at 5.
As for `CC1(C)CC(S(=O)(=O)Cc2cccc3ccsc23)=NO1` [10-0015], the “herbicidal effect (index per standard of Table 21), Setaria viridis (L.) Beauv.” value amounted to 5.
Turning to `Cc1cc2cccc(CS(=O)(=O)C3=NOC(C)(C)C3)c2o1` [10-0013], the “herbicidal effect (index per standard of Table 21), Setaria viridis (L.) Beauv.” value is given as 5.
Same read-out and setting: in the case of `CC1(C)CC(S(=O)(=O)Cc2cc(Cl)sc2Cl)=NO1` [2-0005] it was 5; in that of `CC1(C)CC(S(=O)(=O)Cc2sc3ccccc3c2Cl)=NO1` [10-0003], 5.
On the same count and under the same terms, in the case of `Cc1nn(-c2ccccc2)c(CS(=O)(=O)C2=NOC(C)(C)C2)c1OC(F)F` [5-0006] it was 5.
With `Cn1ncc2c(CS(=O)(=O)C3=NOC(C)(C)C3)cccc21` [10-0005], the “herbicidal effect (index per standard of Table 21), Setaria viridis (L.) Beauv.” value is on record as 5.
Same read-out and setting: with `CC1(C)CC(S(=O)(=O)Cc2ccc(Cl)s2)=NO1` [1-0005] the figure was 5.
Still for that read-out and setting: in the case of `Cc1onc(-c2ccccc2)c1CS(=O)(=O)C1=NOC(C)(C)C1` [4-0007] it was 5; in that of `CC1(C)CC(S(=O)(=O)Cc2nc3ccccc3s2)=NO1` [10-0006], 4.
The same measure, in the same setting: with `Cn1nc(C(F)(F)F)c(CS(=O)(=O)C2=NOC(C)(C)C2)c1OC(C)(C)C` [3-0047] the figure was 5.
With `Cn1nc(Cl)c(CS(=O)(=O)C2=NOC(C)(C)C2)c1C(F)(F)F` [3-0040], the “herbicidal effect (index per standard of Table 21), Setaria viridis (L.) Beauv.” value worked out at 5.

For the next assay, the system named is Monochoria vaginalis (Murm. f.) Presl var. plantaginea (Roxb.) Solms-Laub. Put plainly: Herbicidal effect by paddy field soil treatment. The class given is in vivo. Further details: scale not given here. To be noted: wettable powder, active ingredient 1000 g/ha, examined at the 21st day from the treatment. The method, then:
(§2) A paddy field soil was filled in a plastic pot of 100 cm^2 and subjected to puddling. Then, seeds of Echinochloa oryzicola Vasing and Monochoria vaginalis (Murm. f.) Presl var. plantaginea (Roxb.) Solms-Laub. were sowed and water was filled in a depth of 3 cm. Next day, wettable powders produced in accordance with the Formulation 1 were diluted with water and dropped on the water surface. The application amount of each wettable powder was 1,000 g per 1 hectare in terms of the active ingredient. Then, breeding was made in a greenhouse, and the herbicidal effect of each wettable powder was examined at the 21st day from the treatment in accordance with the standard shown in Table 21.
`CCOCCn1nc(C(F)(F)F)c(CS(=O)(=O)C2=NOC(C)(C)C2)c1Cl` [3-0126]: the “Herbicidal effect index, Monochoria vaginalis (Burm. F.) Presl var. plantaginea (Roxb.) Solms-Laub.” value (“Herbicidal effect index … (Roxb.) Solms-Laub.” for short) is given as 5.
Take `CC1(C)CC(S(=O)(=O)Cc2cccc3ccsc23)=NO1` [10-0015]: the “Herbicidal effect index … (Roxb.) Solms-Laub.” value was determined as 5.
Same read-out and setting: in the case of `Cc1cc2cccc(CS(=O)(=O)C3=NOC(C)(C)C3)c2o1` [10-0013] it was 5.
The same measure, in the same setting: with `CC1(C)CC(S(=O)(=O)Cc2cc(Cl)sc2Cl)=NO1` [2-0005] the figure was 5; with `CC1(C)CC(S(=O)(=O)Cc2sc3ccccc3c2Cl)=NO1` [10-0003], 5; with `Cc1nn(-c2ccccc2)c(CS(=O)(=O)C2=NOC(C)(C)C2)c1OC(F)F` [5-0006], 5.
Still for that read-out and setting: with `Cn1ncc2c(CS(=O)(=O)C3=NOC(C)(C)C3)cccc21` [10-0005] the figure was 5; with `CC1(C)CC(S(=O)(=O)Cc2ccc(Cl)s2)=NO1` [1-0005], 5.
With `Cc1onc(-c2ccccc2)c1CS(=O)(=O)C1=NOC(C)(C)C1` [4-0007], the “Herbicidal effect index … (Roxb.) Solms-Laub.” value was 5.
Same read-out and setting: with `CC1(C)CC(S(=O)(=O)Cc2nc3ccccc3s2)=NO1` [10-0006] the figure was 5.
With `Cn1nc(C(F)(F)F)c(CS(=O)(=O)C2=NOC(C)(C)C2)c1OC(C)(C)C` [3-0047], the “Herbicidal effect index … (Roxb.) Solms-Laub.” value worked out at 5.
The same measure, in the same setting: in the case of `Cn1nc(Cl)c(CS(=O)(=O)C2=NOC(C)(C)C2)c1C(F)(F)F` [3-0040] it was 5.

The test system of the next assay is Echinochloa oryzicola Vasing. Description: Herbicidal effect by paddy field soil treatment. The class given is in vivo. Also noted: scale not given here. The following applies: wettable powder, active ingredient 1000 g/ha, examined at the 21st day from the treatment. The protocol: as §2
Turning to `CCOCCn1nc(C(F)(F)F)c(CS(=O)(=O)C2=NOC(C)(C)C2)c1Cl` [3-0126], the “Herbicidal effect index, Echinochloa oryzicola Vasing” value is recorded as 5.
Same read-out and setting: with `CC1(C)CC(S(=O)(=O)Cc2cccc3ccsc23)=NO1` [10-0015] the figure was 5.
Take `Cc1cc2cccc(CS(=O)(=O)C3=NOC(C)(C)C3)c2o1` [10-0013]: the “Herbicidal effect index, Echinochloa oryzicola Vasing” value is on record as 5.
Same read-out and setting: in the case of `CC1(C)CC(S(=O)(=O)Cc2cc(Cl)sc2Cl)=NO1` [2-0005] it was 5; in that of `CC1(C)CC(S(=O)(=O)Cc2sc3ccccc3c2Cl)=NO1` [10-0003], 5; in that of `Cc1nn(-c2ccccc2)c(CS(=O)(=O)C2=NOC(C)(C)C2)c1OC(F)F` [5-0006], 5.
`Cn1ncc2c(CS(=O)(=O)C3=NOC(C)(C)C3)cccc21` [10-0005]: the “Herbicidal effect index, Echinochloa oryzicola Vasing” value was determined as 5.
Take `CC1(C)CC(S(=O)(=O)Cc2ccc(Cl)s2)=NO1` [1-0005]: the “Herbicidal effect index, Echinochloa oryzicola Vasing” value is recorded as 5.
Still for that read-out and setting: with `Cc1onc(-c2ccccc2)c1CS(=O)(=O)C1=NOC(C)(C)C1` [4-0007] the figure was 5; with `CC1(C)CC(S(=O)(=O)Cc2nc3ccccc3s2)=NO1` [10-0006], 5.
For the compound `Cn1nc(C(F)(F)F)c(CS(=O)(=O)C2=NOC(C)(C)C2)c1OC(C)(C)C` [3-0047], the “Herbicidal effect index, Echinochloa oryzicola Vasing” value was found to be 5.
Same read-out and setting: with `Cn1nc(Cl)c(CS(=O)(=O)C2=NOC(C)(C)C2)c1C(F)(F)F` [3-0040] the figure was 5.
